According to patent publication US8962600B2, “Neuroprotective compounds and their use” (The Medical College of Wisconsin, Inc., priority 2009, dated 2015):

Assays:
IBA-1 = IBA-1 expression in substantia nigra (microglial activation), immunostaining; format: in vivo, C57BL/6 mice; details: diapocynin 300 mg/kg gavage, 1 day pre-treatment + 4 days co-treatment with MPTP 25 mg/kg i.p.
Experimental: For checking inflammatory and oxidative stress markers, mice were gavaged diapocynin (300 mg/kg dose) 1 day before MPTP treatment (pre-treatment) and continued for another 4 days of co-treatment with MPTP. In the sub-acute MPTP regimen, MPTP (25 mg/kg) was injected intraperitoneally once per day from day 2 to day 7. Control mice received saline at the same dosage.
Four days after MPTP treatment, mice were perfused with 4% paraformaldehyde (PFA) and post-fixed with PFA and 30% sucrose, respectively. Next, fixed brains were cut into 30 μm sections and kept in 30% sucrose-ethylene glycol solutions at −20° C. On the day of staining, sections were rinsed with phosphate-buffered saline (PBS) and incubated with different primary antibodies, including anti-IBA-1 (DAKO, Carpinteria, Calif.), anti-GFAP (Millipore, Billerica, Mass.), anti-iNOS (Santa Cruz Biotechnology, Santa Cruz, Calif.), anti-3NT (Millipore), anti-4HNE (R&D Systems, Minneapolis, Minn.) and anti-gp91phox (Santa Cruz Biotechnology) for overnight at 4° C. Appropriate secondary antibodies (Alexa Fluor 488, 594, or 555 from Invitrogen, Carlsbad, Calif.) were used followed by incubation with 10 μg/ml Hoechst 33342 for 5 min at room temperature to stain the nucleus. Sections were viewed under a Nikon inverted fluorescence microscope (model TE-2000U; Nikon, Tokyo, Japan). […]

MPTP-intoxicated mice = test: Open Field locomotor activity in MPTP-injected mice; format: in vivo, C57BL/6 mice; details: MPTP- and diapocynin-treated mice; 300 mg/kg oral gavage; 5 days after last MPTP injection; 10 min session
Experimental: (§1) Six- to 8-week-old C57BL/6 mice weighing 24 to 28 g were housed in standard conditions of constant temperature (22±1° C.), humidity (relative, 30%), and a 12-h light/dark cycle. Mice were allowed free access to food and water. Use of the animals and protocol procedures were approved and supervised by the Committee on Animal Care at Iowa State University (Ames, Iowa). For neurodegeneration studies, mice either received diapocynin (300 mg/kg dose) by oral gavage for 1 day (pre-treatment before MPTP administration), 5 days (co-treatment with MPTP), or 7 days (post-treatment after MPTP).
Two types of behavioral tests were performed including an Open Field experiment for testing locomotor activities and a Rotarod experiment to test coordination of movement of mice after MPTP and diapocynin treatment (48, 56). An Open Field activity monitor (model RXYZCM-16; AccuScan, Columbus, Ohio) was used to measure the spontaneous activity of mice. The activity chamber was 40×40×30.5 cm, made of clear PLEXIGLAS® and covered with a PLEXIGLAS® lid with holes for ventilation. Infrared monitoring sensors were located every 2.54 cm along the perimeter (16 infrared beams along each side) and 2.5 cm above the floor. Two additional sets of 16 sensors were located 8.0 cm above the floor on opposite sides. Data were collected and analyzed by a VersaMax Analyzer (model CDA-8, AccuScan). […]

[1] = tested on: dopaminergic neurons in substantia nigra; test: FLUORO-JADE B and tyrosine hydroxylase double labeling in substantia nigra; format: in vivo, C57BL/6 mice; details: MPTP- and diapocynin-treated mice; 7 days after final MPTP injection
Experimental: as §1
FLUORO-JADE B® and tyrosine hydroxylase (TH) double-labeling was performed in substantia nigra sections, as described previously (58). In brief, 7 days after the final MPTP injection, mice were sacrificed and perfused with 4% PFA and post-fixed with PFA and 30% sucrose, respectively. Fixed brains were cut into 30 μm sections and kept in 30% sucrose-ethylene glycol solutions at −20° C. On the day of staining, sections were rinsed with PBS and incubated with anti-TH antibody (Millipore, mouse monoclonal, dilution 1;1600) followed by Alexa Fluor 568 donkey anti-mouse secondary antibody (Invitrogen). […] Sections were viewed under a Nikon inverted fluorescence microscope (model TE-2000U). […]

p67phox = test: LPS-induced p67phox protein expression in BV2 cells, Western blot; format: cell-based, mouse; details: diapocynin 10 μM 30 min pretreatment, LPS 1 μg/ml 24 hr, back to basal level or below
Experimental: Two cell models of neuroinflammation were used to evaluate the anti-neuroinflammatory property of diapocynin including the mouse BV2 microglial cell line, as well as primary microglia isolated from mouse brains. BV2 cells were obtained from the American Tissue Culture Collection. BV2 cells were maintained in RPMI containing 10% FBS and 100 units of pen/strep at 37° C. and 5% CO2. For treatments, RPMI containing 2% FBS and 100 units of pen/strep was used.
BV2 cell lysates containing equal amounts of protein were loaded in each lane and separated on a 10% SDS-PAGE gel. After separation, the protein was transferred to a nitrocellulose membrane. Non-specific binding sites were blocked with Li-cor blocking buffer for 45 min. The membranes were then treated with primary antibodies directed against NOS2 (mouse monoclonal 1:200) and p67phox (rabbit polyclonal 1:200). To confirm equal amounts of protein were loaded, membranes were also probed for β-actin with a β-actin antibody (dilution of 1:10,000). Secondary antibodies, donkey anti-mouse (Invitrogen) and conjugated anti-rabbit IgG (Rockland), were used at a dilution of 1:10,000 for 1 hr at room temperature. The membranes were imaged and captured using a Li-COR Odyssey infrared imaging system and software.

Compound: COc1cc(C(C)=O)cc(-c2cc(C(C)=O)cc(OC)c2O)c1O [diapocynin]
- IBA-1 protein expression in substantia nigra (IBA-1): inhibition
- horizontal activity (Open Field) (MPTP-intoxicated mice): significantly improved
- vertical activity (Open Field) (MPTP-intoxicated mice): significantly improved
- FLUORO-JADE B-positive cells in substantia nigra [1]: fewer
- TH-positive cells in substantia nigra [1]: increases
- reducing LPS-induced p67phox protein expression (p67phox): extremely effective
